# Test results from publication PMC10761933, “Acquired and intrinsic resistance to vemurafenib in BRAF^V600E ‐driven melanoma brain metastases” (FEBS Open Bio, 2023).
# Read-outs that look alike come from different tables or passages of the source.
# Tests used:
# [1] = Oral vemurafenib plasma pharmacokinetics in tumor‐free WT and Abcb1a/b;Abcg2−/− FVB nude mice; assay type: in vivo; settings: mean ± SD; for Cmax / Tmax / half-life: FVB nude, mouse, plasma, po; for half-life: read-out: t 1/2 (elimination half‐life) (converted)
# Experimental: To establish vemurafenib plasma kinetics, tumor‐free FVB WT, and Abcb1a/b;Abcg2 ^ −/− nude mice received vemurafenib orally (p.o.) by gavage at indicated doses. Elacridar (100 mg·kg^−1) was administrated p.o. by gavage 4 h before vemurafenib. Blood was sampled from the tail vein at 15 min, 1, 2, 4, 8, and 24 h after the administration. The plasma was obtained by centrifugation (5 min, 2000 g, 4 °C). Vemurafenib was extracted from plasma by diethyl ether liquid–liquid extraction. Extracts were dried using a Savant SpeedVac Concentrator (Thermo Fisher Scientific, Waltham, MA, USA), reconstituted in MeCN : water (30 : 70), and subjected to liquid chromatography/tandem mass spectrometry (LC/MS–MS) analysis. Vemurafenib‐^13C6 was used as an internal standard.
# The LC–MS/MS system consisted of an API 3000 mass spectrometer (Sciex, Framingham, MA, USA) coupled to an UltiMate 3000 LC System (Dionex, Sunnyvale, CA, USA). Samples were separated using a ZORBAX Extend‐C18 column (Agilent, Santa Clara, CA, USA), preceded by a Securityguard C18 precolumn (Phenomenex, Utrecht, the Netherlands). Elution was done using a mixture of mobile phase A (0.1% formic acid in water (v/v)) and mobile phase B (methanol) in a 5 min gradient from 20% to 95% B, followed by 95% B that was maintained for 3 min and then re‐equilibrated at 20% B. Multiple reaction monitoring parameters were 490.2/383.1 (vemurafenib) and 496.2/389.1 (vemurafenib‐^13C6). System control and data analysis were done using ANALYST ® 1.6.2 software (AB Sciex, Foster City, CA, USA).
# Pharmacokinetic parameters were calculated with PKSOLVER [30]. All comparisons involving more than two groups were analyzed by one‐way ANOVA followed by Bonferroni post hoc tests. Differences in fractions of ABC transporter‐expressing cells between brain and skin lesions were compared using the Binomial test in which the skin fraction was considered as expected and the brain fraction was considered as observed. Correlations were determined using simple linear regression. Kaplan–Meier curves were drawn using GRAPHPAD PRISM v7 (GraphPad Software, La Jolla, CA, USA), and statistically significant survival differences were determined using the log‐rank test. Statistical significance was accepted in all tests when P < 0.05.
# [2] = tested on: subcutaneous A375 tumors; test: Efficacy against subcutaneous A375 tumors (caliper); assay type: in vivo; settings: 25 mg·kg^−1 in WT mice and 10 mg·kg^−1 in Abcb1a/b;Abcg2−/− mice, 13 consecutive days
# Experimental: For subcutaneous xenograft models, 30 μL of cell suspension containing 3 × 10^6 A375 cells was injected into both flanks of FVB WT and Abcb1a/b;Abcg2 ^ −/− nude mice. For xenograft MBM models, stereotactic intracranial injections (A375 and Mel57) or intracarotid injections (K1735) of melanoma cells were performed as described previously. For intracranial injections, FVB nude mice were injected intracranially with 2 μL of A375 or Mel57 cell suspension containing 1 × 10^5 cells 2 mm lateral, 1 mm anterior, and 3 mm ventral from the bregma. For intracarotid injections, 1 × 10^5 cells in 100 μL HBSS were injected in the left common carotid artery of C3H/HeN mice. Tumor growth was measured by bioluminescence imaging (BLI) for intracranial tumors and by caliper for subcutaneous tumors. The volume of subcutaneous tumors was calculated in mm^3 using the modified ellipsoid formula (volume = 0.5 × length × width^2). […] Animals were stratified into treatment groups to achieve a similar mean bioluminescence reading within each cohort. […] All subsequent measurements were recorded relative to this first measurement and converted to their log values. Mean ± standard error (SE) values were calculated and plotted in graphs.
# For the subcutaneous tumor model, therapy was initiated 2 weeks after implantation, when the tumor volume exceeded 40 mm^3. […] Tumor development was assessed by caliper twice a week. […]
# [3] = Body weight during efficacy studies; assay type: in vivo, mice
# Experimental: For the subcutaneous tumor model, therapy was initiated 2 weeks after implantation, when the tumor volume exceeded 40 mm^3. FVB WT and Abcb1a/b;Abcg2 ^ −/− nude mice (n = 8) received 25 and 10 mg·kg^−1 of vemurafenib daily, respectively. Control mice (n = 8) received vehicle. Tumor development was assessed by caliper twice a week. For the intracranial tumor model, treatment was started about 2 weeks after intracranial injection of tumor cells, when full‐blown tumors were present in all animals. WT and Abcb1a/b;Abcg2 ^ −/− nude mice received vehicle, 25 mg·kg^−1 vemurafenib, 10 mg·kg^−1 vemurafenib plus 100 mg·kg^−1 elacridar, or 10 mg·kg^−1 vemurafenib once daily for 10 consecutive days or in a 5 days on/2 days off/5 days on schedule, as indicated in the relevant figure panels. Tumor growth was monitored by BLI every 4 or 5 days. Mice were weighed daily weighed examined for abnormalities. The mice were humanely sacrificed based on BLI results or when weight loss exceeded 20% of the initial body weight.
# [4] = oral, WT mice; cited from earlier work
# [5] = design: method as in PMID 25933211; settings: clinical study; cited from earlier work
# [6] = tested on: melanoma brain metastases; settings: MBM patients; cited from earlier work
# [7] = Abcb1a/b;Abcg2−/− mice, 10 mg·kg^−1 p.o.
# [8] = Abcb1a/b;Abcg2−/− mice, 25 mg·kg^−1 p.o.
# [9] = 10 mg/kg, Abcb1a/b;Abcg2−/− mice, 10 mg·kg^−1 p.o.
# [10] = 10 mg/kg, WT mice, 10 mg·kg^−1 p.o. + elacridar 100 mg·kg^−1 p.o. 4 h before
# [11] = 25 mg/kg, Abcb1a/b;Abcg2−/− mice, 25 mg·kg^−1 p.o.
# [12] = 25 mg/kg, WT mice, 25 mg·kg^−1 p.o.
# [13] = WT mice, 10 mg·kg^−1 p.o. + elacridar 100 mg·kg^−1 p.o. 4 h before
smiles,measurement,setting,value
CCCS(=O)(=O)Nc1ccc(F)c(C(=O)c2c[nH]c3ncc(-c4ccc(Cl)cc4)cc23)c1F [vemurafenib],AUCplasma 0–4 h,[1]; [7],56 ± 7.2 µg·mL/h
same,AUCplasma 0–24 h,[1]; [7],230 ± 35 µg·mL/h
same,AUCplasma 0–∞,[1]; [7],250 ± 49 µg·mL/h
same,CL/F (apparent clearance after oral administration),[1]; [7],0.04 ± 0.006 L·kg/h
same,AUCplasma 0–4 h,[1]; [8],140 ± 16 µg·mL/h
same,AUCplasma 0–24 h,[1]; [8],530 ± 68 µg·mL/h
same,AUCplasma 0–∞,[1]; [8],610 ± 84 µg·mL/h
same,CL/F (apparent clearance after oral administration),[1]; [8],0.04 ± 0.006 L·kg/h
same,Cmax,[1]; [9],17000 ± 1700 ng/mL
same,Tmax,[1]; [9],2.8 ± 1.1 h
same,half-life,[1]; [9],6.7 ± 1.4 h
same,Tmax,[1]; [10],3.6 ± 0.9 h
same,half-life,[1]; [10],5.8 ± 0.6 h
same,Cmax,[1]; [10],12000 ± 1700 ng/mL
same,Cmax,[1]; [11],41000 ± 4500 ng/mL
same,Tmax,[1]; [11],1.9 ± 0.9 h
same,half-life,[1]; [11],8.5 ± 1.2 h
same,Cmax,[1]; [12],42000 ± 7700 ng/mL
same,Tmax,[1]; [12],2.6 ± 1.3 h
same,half-life,[1]; [12],2.1 ± 0.2 h
same,AUCplasma 0–4 h,[1]; [13],38 ± 5.7 µg·mL/h
same,AUCplasma 0–24 h,[1]; [13],180 ± 24 µg·mL/h
same,AUCplasma 0–∞,[1]; [13],190 ± 23 µg·mL/h
same,CL/F (apparent clearance after oral administration),[1]; [13],0.05 ± 0.006 L·kg/h
same,AUCplasma 0–4 h,"[1]; WT mice, 25 mg·kg^−1 p.o.",147 ± 28 µg·mL/h
same,AUCplasma 0–24 h,"[1]; WT mice, 25 mg·kg^−1 p.o.",390 ± 98 µg·mL/h
same,AUCplasma 0–∞,"[1]; WT mice, 25 mg·kg^−1 p.o.",390 ± 99 µg·mL/h
same,CL/F (apparent clearance after oral administration),"[1]; WT mice, 25 mg·kg^−1 p.o.",0.07 ± 0.017 L·kg/h
same,"efficacy against subcutaneous A375 tumors, WT vs Abcb1a/b;Abcg2−/− mice",[2],equally effective
same,body weight,"[3]; Abcb1a/b;Abcg2−/− mice with intracranial A375, two cycles of 5 days of 25 mg·kg^−1 daily oral",without affecting body weight
same,body weight,"[3]; intracranial A375, any treatment regimen (WT 25, WT 10 + elacridar, Abcb1a/b;Abcg2−/− 10 mg·kg^−1)",could not observe any weight loss
same,body weight,"[3]; subcutaneous A375, 25 mg·kg^−1 in WT and 10 mg·kg^−1 in Abcb1a/b;Abcg2−/− mice, 13 days",did not result in body weight loss
same,brain–plasma ratio,[4],around 0.02
same,concentration in cerebrospinal fluid (CSF) as share of the plasma concentration,[5],< 1%
same,median overall survival,[6],4.3 months
